{"source": "patent US20210040134A1", "about": "“COMBINATIONS OF MACROLIDE COMPOUNDS AND IMMUNE CHECKPOINT INHIBITORS” (ISR IMMUNE SYSTEM REGULATION HOLDING AB (PUBL), priority 2018, published 2021)", "key": {"[1]": {"experiment": "Human microsome stability assay", "type": "in vitro ADME", "conditions": "pH 7.4, human liver microsomes, read-out: T½", "protocol": "Rate of metabolism in microsomes was tested as follows:\nHuman liver microsomes were diluted with buffer C (0.1 M Potassium Phosphate buffer, 1.0 mM EDTA, pH 7.4) to a concentration of […]. Microsomal stability studies were carried out by adding 30 μL of 1.5 μM compound spiking solution to wells (1.5 μL of 500 μM spiking solution (10 μL of 10 mM DMSO stock solution into 190 μL ACN to eventually generate final test concentration of 1 uM) and 18.75 μL of 20 mg/mL liver microsomes into 479.75 μL of Buffer C). All samples were pre-incubated for approximately 15 minutes at 37° C. Following this, the reaction was initiated by adding 15 μL of the NADPH solution (6 mM) with gentle mixing. Aliquots (40 μL) were removed at 0, 5, 15, 30 and 45 minutes and quenched with ACN containing internal standard (135 μL). Protein was removed by centrifugation (4000 rpm, 15 min) and the sample plate analysed for compound concentration by LC-MS/MS. Half-lives were then calculated by standard methods, comparing the concentration of analyte with the amount originally present.\nThe metabolic stability of the compounds of the invention was assessed in a standard human microsome stability assay (see general methods)."}, "human TLR2": {"target": "T1, human TLR2 (Homo sapiens, UniProt O60603)", "T1 construct": "host or cells: recombinant HEK-293-TLR cell lines", "T1 sequence (O60603 21-784)": "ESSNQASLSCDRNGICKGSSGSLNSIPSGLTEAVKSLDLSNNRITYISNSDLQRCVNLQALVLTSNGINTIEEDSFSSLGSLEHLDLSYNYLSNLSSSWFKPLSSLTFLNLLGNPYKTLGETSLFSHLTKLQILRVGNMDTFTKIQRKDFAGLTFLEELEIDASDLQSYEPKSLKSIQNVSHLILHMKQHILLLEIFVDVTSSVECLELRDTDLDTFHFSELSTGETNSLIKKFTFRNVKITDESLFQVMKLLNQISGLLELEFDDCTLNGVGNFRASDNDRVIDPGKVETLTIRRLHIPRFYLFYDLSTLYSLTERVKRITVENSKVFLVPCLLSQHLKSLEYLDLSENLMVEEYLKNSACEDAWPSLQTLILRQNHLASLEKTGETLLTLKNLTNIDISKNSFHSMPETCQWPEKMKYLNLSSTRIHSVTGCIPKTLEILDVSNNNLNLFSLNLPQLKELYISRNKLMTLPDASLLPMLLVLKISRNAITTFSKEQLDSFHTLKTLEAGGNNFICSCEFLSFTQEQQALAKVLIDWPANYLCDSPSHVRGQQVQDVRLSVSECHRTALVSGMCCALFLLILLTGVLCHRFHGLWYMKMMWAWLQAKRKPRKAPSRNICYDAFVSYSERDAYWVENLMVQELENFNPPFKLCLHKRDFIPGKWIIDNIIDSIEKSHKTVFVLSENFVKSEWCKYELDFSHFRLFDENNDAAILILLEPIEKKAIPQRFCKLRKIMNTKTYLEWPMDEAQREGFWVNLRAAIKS", "experiment": "TLR2 reporter assay (HEK-293-TLR, SEAP)", "type": "cell-based", "conditions": "concentrations up to 20 uM", "protocol": "Samples and controls were tested in duplicate on recombinant HEK-293-TLR cell lines using a cell reporter assay at Invivogen using their standard assay conditions. These cell lines functionally over-express human TLR2 protein as well as a reporter gene which is a secreted alkaline phosphatase (SEAP). The production of this reporter gene is driven by an NFkB inducible promoter. The TLR reporter cell lines activation results are given as optical density values (OD).\n20 μl of each test article were used to stimulate the hTLR2 reporter cell lines in a 200 μl of final reaction volume. Samples were tested in duplicate, with at least two concentrations tested—20 uM and 10 uM.\nCompounds were tested using a TLR2 reporter assay (see general methods) that measured for stimulation of the TLR2 receptor. Stimulatory effect was measured as an increase in optical density (OD) due to release of secreted alkaline phosphatase (SEAP) and is shown in table 4: […]"}, "[2]": {"tested_on": "PBMCs from CMV infected donors", "experiment": "IFN-gamma secretion from PBMCs of CMV infected donors with CMV antigen (cytometric bead assay)", "type": "cell-based, human", "conditions": "3 days", "excerpt": "FIG. 9: Interferon-gamma secretion (as measured by cytometric bead assay) from PBMCs (from a CMV+ donor) grown with CMV peptides in the presence or absence of compound 1 or A for 5 days.\nStudy 8: PBMCs from CMV infected donors cultured in the presence of CMV antigen where either untreated or exposed to compound 1 or compound 2 for 3 days."}, "macrophages": {"tested_on": "macrophages", "experiment": "Cytokine secretion from macrophages (cytometric bead assay)", "type": "cell-based, human", "protocol": "FIG. 10: Interferon-gamma secretion (as measured by cytometric bead assay) from macrophages stimulated with indicated compound for 48 h.\n(§1) FIG. 11: Chemokine RANTES secretion (as measured by cytometric bead assay) from PBMC or macrophages stimulated with indicated compound for 48 h.\n(§2) FIG. 12: IL12p70 secretion (as measured by cytometric bead assay) from PBMC or macrophages stimulated with indicated compound for 48 h.\n(§3) FIG. 13: IL1 b secretion (as measured by cytometric bead assay) from PBMC, macrophages or CD4 T cells stimulated with indicated compound for 48 h.\nStudy 9: Macrophages from healthy donors where exposed to compounds 1 or 2 for 48 hours. […] Compound 1 is therefore able to induce IFN-gamma secretion in macrophages from healthy donors.\n(§4) Study 10: PBMCs and macrophages where exposed to compounds 1 or 2 for 2 days (FIG. 11).\n(§5) Study 11: PBMCs and macrophages where exposed to compounds 1 and 2 for 2 days.\n(§6) Study 12: PBMCs, macrophages and CD4+ T cells where exposed to compounds 1 and 2 for 2 days."}, "PBMCs": {"tested_on": "PBMCs", "experiment": "Cytokine secretion from PBMCs (cytometric bead assay)", "type": "cell-based, human", "conditions": "2 days", "protocol": "as §1, §2, §3, §4, §5, §6"}, "CD4+ T cells": {"tested_on": "CD4+ T cells", "experiment": "IL-1 beta secretion from CD4+ T cells (cytometric bead assay)", "type": "cell-based, human", "conditions": "2 days", "protocol": "as §3, §6"}, "C57bl/6 mice": {"tested_on": "C57bl/6 mice", "experiment": "MHC class I expression on CD11b+ splenocytes of mice after i.v. injection", "type": "in vivo", "conditions": "spleen removed 24 h later", "protocol": "FIG. 15: % MHC class I high CD11 b+ cells in spleen of 3 individual C57bl/6 mice injected 24 h previously with indicated compound. MHC class I and CD11 b expression was measured by flow cytometry.\nStudy 14: Compound 1 or 2 was administered i.v. to C57bl/6 mice."}, "[3]": {"tested_on": "E. coli, S. salivarius, L. casei, B. longum, M. luteus", "experiment": "MIC assay, summary over all bacterial strains tested", "type": "cell-based", "conditions": "any of the strains tested", "protocol": "The bioactivity of macrolide compounds against 4 strains of common gut bacteria (Escherichia coli, Streptococcus salivarius subsp. salivarius, Lactobacillus casei and Bifidobacterium longum subsp. infantis) and common mammalian skin isolate Micrococcus luteus, was assessed using the Minimum Inhibitory Concentration (MIC) assay. Bacterial strains were purchased from DSMZ (Brunswick, Germany) except M. luteus which was obtained from NCIMB, and stored in 20% glycerol at −80° C. Stock solutions (100% DMSO) of positive controls (azithromycin and erythromycin), and of test compounds 1 and 2 were diluted in broth to working stock concentrations of 256 μg/ml (final assay testing concentration range 128 μg/ml to 0.00391 μg/ml). Stock solutions of all other compounds were diluted in broth to working stock concentrations of 128 μg/ml (final assay testing concentration range 64 μg/ml to 0.00195 μg/ml). Bacterial strains were cultivated in appropriate broth in an anaerobic chamber at 37° C., except for M. luteus which was incubated aerobically at 37° C. 18 h cultures were diluted in broth to an OD595 of 0.1 and then further diluted 1:10. In 96-well plates, in duplicate, 200 μl working stock of test compound was transferred to well 1 and serially diluted (1:2) in broth. 100 μl bacterial suspension was aliquoted into each well and mixed thoroughly. Appropriate sterility controls were included and plates were incubated in an anaerobic chamber, or aerobically (M. luteus) at 37° C. for 18 h. The MIC was determined to be the concentration of test compound in the first well with no visible growth."}}, "data": [{"smiles": "CC[C@H]1OC(=O)[C@H](C)[C@@H](O[C@H]2C[C@@H](N(C)C)[C@H](O)[C@@H](C)O2)[C@H](C)[C@@H](O)[C@](C)(O)C[C@@H](C)CN(C)[C@H](C)[C@@H](O)[C@]1(C)O", "note": "[Compound 1]", "values": [{"measurement": "half-life at 1 uM", "setting": "[1]", "value": 1.8, "unit": "h"}, {"measurement": "TLR2 stimulation (in words)", "setting": "human TLR2", "value": "stimulated TLR2 at concentrations down to 5 uM"}, {"measurement": "IFN-gamma secretion", "setting": "[2]", "value": "induced secretion of high levels of IFN-gamma"}, {"measurement": "IL-1 beta secretion in macrophages", "setting": "macrophages; 2 days", "value": "increased"}, {"measurement": "IL-12p70 secretion from macrophages", "setting": "macrophages; 2 days", "value": "secreted IL-12p70"}, {"measurement": "IFN-gamma secretion from macrophages", "setting": "macrophages; 48 hours", "value": "secreted IFN-gamma"}, {"measurement": "IL-1 beta secretion in PBMCs", "setting": "PBMCs", "value": "slightly"}, {"measurement": "IL-12p70 secretion from PBMCs", "setting": "PBMCs", "value": "secreted IL-12p70"}, {"measurement": "IL-1 beta secretion in CD4+ T cells", "setting": "CD4+ T cells", "value": "no IL-1 beta was induced"}, {"measurement": "splenocyte cells with high MHC I expression (CD11b+)", "setting": "C57bl/6 mice", "value": "induced an increase"}, {"measurement": "antibacterial activity against the bacterial strains tested (in words)", "setting": "[3]", "value": "no antibacterial activity"}]}]}
